# Measurements from patent US20250034216A1, “STEREOSELECTIVE COVALENT LIGANDS FOR ONCOGENIC AND IMMUNOLOGICAL PROTEINS” (The Scripps Research Institute, priority 2021, published 2025).
# Experiments:
# Assay in all cases: IA-DTB cysteine engagement
# Type in all cases: binding
# DHRS13_C174 = biological target: T1, DHRS13_C174 (Homo sapiens, UniProt Q6UX07); settings: 22Rv1 cells, 20 μM probe, 1 h, relative to DMSO
# T1 construct: endogenous in cells; host or cells: 22Rv1
# T1 sequence (Q6UX07 26-377): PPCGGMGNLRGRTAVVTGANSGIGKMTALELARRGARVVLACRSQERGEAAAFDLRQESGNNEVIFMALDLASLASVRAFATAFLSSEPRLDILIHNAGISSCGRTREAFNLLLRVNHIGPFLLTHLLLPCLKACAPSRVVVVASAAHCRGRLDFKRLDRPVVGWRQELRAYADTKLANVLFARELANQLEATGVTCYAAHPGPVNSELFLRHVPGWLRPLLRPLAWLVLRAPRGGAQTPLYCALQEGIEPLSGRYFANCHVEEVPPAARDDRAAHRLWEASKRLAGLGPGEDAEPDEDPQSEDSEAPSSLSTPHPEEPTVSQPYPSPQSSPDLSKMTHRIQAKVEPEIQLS
# Summary of the method: (§1)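 Probe-exposed cells were lysed, IA-DTB-labeled, trypsinized and streptavidin-enriched. Multiplexed TMT quantitation gave engagement ratios versus DMSO, with non-tryptic peptides excluded and intensities normalized to median summed signal.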
# NUDT16L1_C88 = biological target: T2, NUDT16L1_C88 (Homo sapiens, UniProt Q9BRJ7); settings: 22Rv1 cells, relative to DMSO; for % engagement NUDT16L1_C88: 20 μM probe, 1 h; for % engagement NUDT16L1_88: 5 μM probe, 1 h (FIG. 5B)
# T2 construct: endogenous in cells; host or cells: 22Rv1
# Summary of the method: as §1
# PAFAH2_C72 = biological target: T3, PAFAH2_C72 (Homo sapiens, UniProt Q99487); settings: 22Rv1 cells, 20 μM probe, 1 h, relative to DMSO
# T3 construct: endogenous in cells; host or cells: 22Rv1
# Summary of the method: as §1
# PRORP_C507 = biological target: T4, PRORP_C507 (Homo sapiens, UniProt O15091); settings: 22Rv1 cells, 20 μM probe, 1 h, relative to DMSO
# T4 construct: endogenous in cells; host or cells: 22Rv1
# T4 sequence (O15091 46-583): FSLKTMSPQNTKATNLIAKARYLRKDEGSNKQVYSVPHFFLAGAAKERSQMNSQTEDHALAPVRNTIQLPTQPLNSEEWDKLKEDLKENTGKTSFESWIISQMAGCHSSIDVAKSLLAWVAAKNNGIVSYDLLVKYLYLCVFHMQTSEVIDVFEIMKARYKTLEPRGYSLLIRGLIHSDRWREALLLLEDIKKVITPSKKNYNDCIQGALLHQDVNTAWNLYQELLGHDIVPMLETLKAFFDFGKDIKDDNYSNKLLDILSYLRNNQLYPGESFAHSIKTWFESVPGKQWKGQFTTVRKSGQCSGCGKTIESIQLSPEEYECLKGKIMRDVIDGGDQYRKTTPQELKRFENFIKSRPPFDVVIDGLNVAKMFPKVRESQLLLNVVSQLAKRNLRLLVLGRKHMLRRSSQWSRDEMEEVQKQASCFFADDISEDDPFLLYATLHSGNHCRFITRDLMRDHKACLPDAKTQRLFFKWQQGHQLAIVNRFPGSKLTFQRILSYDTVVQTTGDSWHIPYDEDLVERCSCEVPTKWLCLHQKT
# Summary of the method: as §1
# ZNF346_C68 = biological target: T5, ZNF346_C68 (Homo sapiens, UniProt Q9UL40); settings: 22Rv1 cells, 20 μM probe, 1 h, relative to DMSO
# T5 construct: endogenous in cells; host or cells: 22Rv1
# T5 sequence (Q9UL40 1-294): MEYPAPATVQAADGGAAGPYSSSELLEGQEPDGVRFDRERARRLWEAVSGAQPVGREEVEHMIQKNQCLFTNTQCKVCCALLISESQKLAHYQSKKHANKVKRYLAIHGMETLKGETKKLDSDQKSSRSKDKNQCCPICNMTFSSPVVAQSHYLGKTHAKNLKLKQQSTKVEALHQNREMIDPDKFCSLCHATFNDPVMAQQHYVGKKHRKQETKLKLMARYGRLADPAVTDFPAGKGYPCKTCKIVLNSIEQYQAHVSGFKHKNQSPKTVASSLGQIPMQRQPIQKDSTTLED
# Summary of the method: as §1
# T2 sequence (Q9BRJ7 whole entry): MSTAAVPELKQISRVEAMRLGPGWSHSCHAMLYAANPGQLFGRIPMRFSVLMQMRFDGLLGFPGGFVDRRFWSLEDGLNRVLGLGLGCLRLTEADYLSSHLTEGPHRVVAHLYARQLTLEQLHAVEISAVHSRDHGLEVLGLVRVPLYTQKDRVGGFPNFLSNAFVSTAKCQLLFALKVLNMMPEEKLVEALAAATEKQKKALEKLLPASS
smiles,measurement,setting,value
"C=CC(=O)N1C[C@@H](c2ccc(Br)cc2)[C@H]1C(=O)Nc1cccc2cccnc12 [MY-1A, (2S,3R)-1-acryloyl-3-(4-bromophenyl)-N-(quinolin-8-yl)azetidine-2-carboxamide]",% engagement DHRS13_C174,DHRS13_C174,60.25%
same,% engagement NUDT16L1_C88,NUDT16L1_C88,33.25%
same,% engagement PAFAH2_C72,PAFAH2_C72,61.75%
same,% engagement PRORP_C507,PRORP_C507,6.75%
same,% engagement ZNF346_C68,ZNF346_C68,95.5%
"C=CC(=O)N1C[C@H](c2ccc(Br)cc2)[C@@H]1C(=O)Nc1cccc2cccnc12 [MY-1B, (2R,3S)-1-acryloyl-3-(4-bromophenyl)-N-(quinolin-8-yl)azetidine-2-carboxamide]",% engagement DHRS13_C174,DHRS13_C174,69.75%
same,% engagement NUDT16L1_88,NUDT16L1_C88,67.63%
same,% engagement NUDT16L1_C88,NUDT16L1_C88,88.5%
same,% engagement PAFAH2_C72,PAFAH2_C72,61%
same,% engagement PRORP_C507,PRORP_C507,74.25%
same,% engagement ZNF346_C68,ZNF346_C68,37%
"C=CC(=O)N1C[C@H](c2ccc(Br)cc2)[C@H]1C(=O)Nc1cccc2cccnc12 [MY-3A, (2S,3S)-1-acryloyl-3-(4-bromophenyl)-N-(quinolin-8-yl)azetidine-2-carboxamide]",% engagement DHRS13_C174,DHRS13_C174,42%
same,% engagement NUDT16L1_C88,NUDT16L1_C88,14.5%
same,% engagement PAFAH2_C72,PAFAH2_C72,56.75%
same,% engagement PRORP_C507,PRORP_C507,1.25%
same,% engagement ZNF346_C68,ZNF346_C68,14%
"C=CC(=O)N1C[C@H](c2ccc(Br)cc2)[C@H]1C(=O)Nc1cccc2cccnc12 [MY-3B, (2S,3S)-1-acryloyl-3-(4-bromophenyl)-N-(quinolin-8-yl)azetidine-2-carboxamide]",% engagement DHRS13_C174,DHRS13_C174,61.75%
same,% engagement NUDT16L1_C88,NUDT16L1_C88,87.5%
same,% engagement PAFAH2_C72,PAFAH2_C72,81%
same,% engagement PRORP_C507,PRORP_C507,34.5%
same,% engagement ZNF346_C68,ZNF346_C68,45.25%
"CC#CC(=O)N1C[C@H](c2ccc(Br)cc2)[C@@H]1C(=O)Nc1cccc2cccnc12 [MY-45B, (2R,3S)-3-(4-bromophenyl)-1-(but-2-ynoyl)-N-(quinolin-8-yl)azetidine-2-carboxamide]",% engagement NUDT16L1_88,NUDT16L1_C88,9.38%
